Assay results reported in ChEMBL document CHEMBL5352394, “Development of fluorizoline analogues as prohibitin ligands that modulate C-RAF signaling, p21 expression and melanogenesis” (Eur J Med Chem, 2022).
The source made the active and inactive calls. The rule behind the calls is not given here.

Target: RAF proto-oncogene serine/threonine-protein kinase (Homo sapiens) (UniProt P04049)
Experiment: Inhibition of C-RAF phosphorylation at Ser 338 residue in human HeLa cells at 10 uM preincubated with compound for 1 hr and followed by EGF stimulation for 30 mins by Western blot analysis
Type: cell-based
Conditions: not given

Chain of RAF proto-oncogene serine/threonine-protein kinase (Homo sapiens) (P04049 whole entry): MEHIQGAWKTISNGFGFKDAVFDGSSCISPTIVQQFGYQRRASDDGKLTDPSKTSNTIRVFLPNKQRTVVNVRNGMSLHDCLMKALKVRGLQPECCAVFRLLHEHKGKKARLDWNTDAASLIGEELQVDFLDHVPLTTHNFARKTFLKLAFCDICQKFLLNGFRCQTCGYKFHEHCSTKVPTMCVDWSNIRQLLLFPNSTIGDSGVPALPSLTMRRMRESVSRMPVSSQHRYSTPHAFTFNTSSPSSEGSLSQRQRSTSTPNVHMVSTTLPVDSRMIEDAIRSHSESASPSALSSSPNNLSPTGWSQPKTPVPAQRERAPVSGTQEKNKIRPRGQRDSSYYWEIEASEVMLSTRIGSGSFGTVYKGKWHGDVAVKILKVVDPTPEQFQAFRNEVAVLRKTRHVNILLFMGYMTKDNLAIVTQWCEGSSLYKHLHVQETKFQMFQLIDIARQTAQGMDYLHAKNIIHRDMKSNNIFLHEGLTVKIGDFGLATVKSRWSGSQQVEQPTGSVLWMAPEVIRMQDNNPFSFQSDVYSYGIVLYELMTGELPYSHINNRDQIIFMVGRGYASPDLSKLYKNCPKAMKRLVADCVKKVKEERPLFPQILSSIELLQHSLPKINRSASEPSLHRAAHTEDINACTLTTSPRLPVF

| Structure (SMILES) | inhibition |
| --- | --- |
| FC1(F)N=C(c2ccccn2)SC1(F)c1ccccc1 (stereo not drawn) | Active |
| CC1(F)N=C(c2ccc(Cl)cc2)SC1(F)c1ccc(Cl)cc1 (stereo not drawn) | inactive |
| FC1(F)N=C(c2ncccn2)SC1(F)c1ccc(Cl)cc1 (stereo not drawn) | Active |
| FC1(F)N=C(c2ccc(Cl)cn2)SC1(F)c1ccc(Cl)cc1 (stereo not drawn) | Active |
| FC1(F)N=C(c2ccccn2)SC1(F)c1ccc(Cl)cc1 (stereo not drawn) | Active |
| FC1(F)N=C(c2cnccn2)SC1(F)c1ccc(Cl)cc1 (stereo not drawn) | inactive |
| FC1(F)SC(c2ccc(Cl)cc2)=NC1(F)c1ccc(Cl)cc1 (stereo not drawn) | inactive |

More lines, now with the values ahead:

| inhibition | Structure (SMILES) |
| --- | --- |
| Active | O=C(c1ccccc1)c1ccc(C2=NC(F)(F)C(F)(c3ccc(Cl)cc3)S2)cc1 (stereo not drawn) |
| inactive | Cc1ccc(C2(F)SC(c3ccccc3)=NC2(F)F)cc1 (stereo not drawn) |
| Active | FC1(F)N=C(c2ccc(Br)cc2)SC1(F)c1ccc(Cl)cc1 (stereo not drawn) |
| Active | Cc1ccc(C2(F)SC(c3ccc(Cl)cc3)=NC2(F)F)cc1 (stereo not drawn) |

Target: Dual specificity mitogen-activated protein kinase kinase 1 (Homo sapiens) (UniProt Q02750)
Experiment: Inhibition of MEK1 phosphorylation in human HeLa cells at 10 uM preincubated for 1 hr and followed by EGF stimulation for 30 mins by Western blot analysis
Type: cell-based
Conditions: not given

Chain of Dual specificity mitogen-activated protein kinase kinase 1 (Homo sapiens) (Q02750 whole entry): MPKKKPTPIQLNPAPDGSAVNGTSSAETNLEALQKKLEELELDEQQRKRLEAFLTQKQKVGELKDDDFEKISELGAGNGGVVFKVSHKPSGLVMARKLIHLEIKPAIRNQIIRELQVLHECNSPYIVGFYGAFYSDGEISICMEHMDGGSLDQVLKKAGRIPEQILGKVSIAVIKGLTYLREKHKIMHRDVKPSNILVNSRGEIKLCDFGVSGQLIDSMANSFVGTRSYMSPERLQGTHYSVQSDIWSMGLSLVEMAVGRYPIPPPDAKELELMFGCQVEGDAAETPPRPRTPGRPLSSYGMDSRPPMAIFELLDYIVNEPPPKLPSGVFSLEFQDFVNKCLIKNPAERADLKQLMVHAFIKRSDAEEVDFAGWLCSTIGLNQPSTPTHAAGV

| Structure (SMILES) | inhibition |
| --- | --- |
| CC1(F)N=C(c2ccc(Cl)cc2)SC1(F)c1ccc(Cl)cc1 (stereo not drawn) | Active |
| FC1(F)N=C(c2ncccn2)SC1(F)c1ccc(Cl)cc1 (stereo not drawn) | Active |
| FC1(F)N=C(c2ccc(Cl)cn2)SC1(F)c1ccc(Cl)cc1 (stereo not drawn) | inactive |
| FC1(F)N=C(c2ccccn2)SC1(F)c1ccc(Cl)cc1 (stereo not drawn) | Active |
| FC1(F)N=C(c2cnccn2)SC1(F)c1ccc(Cl)cc1 (stereo not drawn) | inactive |
| FC1(F)SC(c2ccc(Cl)cc2)=NC1(F)c1ccc(Cl)cc1 (stereo not drawn) | inactive |

Further lines, results first:

| inhibition | Structure (SMILES) |
| --- | --- |
| inactive | Cc1ccc(C2(F)SC(c3ccccc3)=NC2(F)F)cc1 (stereo not drawn) |
| Active | Cc1ccc(C2(F)SC(c3ccc(Cl)cc3)=NC2(F)F)cc1 (stereo not drawn) |

System: HeLa
Experiment: Cytotoxicity against human HeLa cells assessed as reduction in cell viability measured after 24 hrs by MTT assay
Type: functional, cell-based
Conditions: dose 1.25-10 µM

| Structure (SMILES) | Activity |
| --- | --- |
| Cc1ccc(C2(F)SC(c3ccccc3)=NC2(F)F)cc1 (stereo not drawn) | Dose-Dependent Effect |
| FC1(F)N=C(c2ccc(Cl)cc2)SC1(F)c1ccc(Cl)cc1 (stereo not drawn) | Dose-Dependent Effect |
| FC1(F)N=C(c2ccc(Br)cc2)SC1(F)c1ccc(Cl)cc1 (stereo not drawn) | Dose-Dependent Effect |
| FC1(F)N=C(c2ccc(Cl)cn2)SC1(F)c1ccc(Cl)cc1 (stereo not drawn) | Dose-Dependent Effect |
| Cc1ccc(C2(F)SC(c3ccc(Cl)cc3)=NC2(F)F)cc1 (stereo not drawn) | Dose-Dependent Effect |

System: MCF7
Experiment: Upregulation of p21 expression in human MCF7 cells at 1 uM incubated for 72 hrs by Western blot analysis
Type: functional, cell-based
Conditions: not given

| Structure (SMILES) | Activity |
| --- | --- |
| FC1(F)N=C(c2ccc(Br)cc2)SC1(F)c1ccc(Cl)cc1 (stereo not drawn) | Active |
| FC1(F)N=C(c2cnccn2)SC1(F)c1ccc(Cl)cc1 (stereo not drawn) | Active |
| FC1(F)SC(c2ccc(Cl)cc2)=NC1(F)c1ccc(Cl)cc1 (stereo not drawn) | inactive |

System: MCF7
Experiment: Antiproliferative activity against human MCF7 cells assessed as reduction in cell viability at 1 uM incubated for 72 hrs by trypan blue exclusion assay
Type: functional, cell-based
Conditions: not given

| Structure (SMILES) | Activity |
| --- | --- |
| FC1(F)N=C(c2ccc(Br)cc2)SC1(F)c1ccc(Cl)cc1 (stereo not drawn) | Active |
| FC1(F)N=C(c2cnccn2)SC1(F)c1ccc(Cl)cc1 (stereo not drawn) | Active |
| FC1(F)SC(c2ccc(Cl)cc2)=NC1(F)c1ccc(Cl)cc1 (stereo not drawn) | inactive |

System: MCF7
Experiment: Antiproliferative activity against human MCF7 cells transfected with p21 siRNA assessed as reduction in cell viability at 1 uM incubated for 48 hrs by tryphan blue dye exclusion analysis
Type: functional, cell-based
Conditions: not given

| Structure (SMILES) | Activity |
| --- | --- |
| Cc1ccc(C2(F)SC(c3ccccc3)=NC2(F)F)cc1 (stereo not drawn) | inactive |
| FC1(F)N=C(c2cnccn2)SC1(F)c1ccc(Cl)cc1 (stereo not drawn) | inactive |

System: HBL
Experiment: Induction of pigmentation in human HBL cells assessed as melanogenesis at 0.1 to 10 uM by microscopic analysis
Type: functional, cell-based
Conditions: dose 0.1-10 µM

| Structure (SMILES) | Activity |
| --- | --- |
| O=C(c1ccccc1)c1ccc(C2=NC(F)(F)C(F)(c3ccc(Cl)cc3)S2)cc1 (stereo not drawn) | Active |
| FC1(F)N=C(c2ccccn2)SC1(F)c1ccccc1 (stereo not drawn) | Active |
| Cc1ccc(C2(F)SC(c3ccccc3)=NC2(F)F)cc1 (stereo not drawn) | Active |
| FC1(F)N=C(c2ncccn2)SC1(F)c1ccc(Cl)cc1 (stereo not drawn) | Active |
| FC1(F)N=C(c2ccc(Cl)cc2)SC1(F)c1ccc(Cl)cc1 (stereo not drawn) | Active |
| FC1(F)N=C(c2ccc(Br)cc2)SC1(F)c1ccc(Cl)cc1 (stereo not drawn) | Active |
| FC1(F)N=C(c2ccc(Cl)cn2)SC1(F)c1ccc(Cl)cc1 (stereo not drawn) | Active |
| Cc1ccc(C2(F)SC(c3ccc(Cl)cc3)=NC2(F)F)cc1 (stereo not drawn) | Active |
| FC1(F)N=C(c2ccccn2)SC1(F)c1ccc(Cl)cc1 (stereo not drawn) | Active |
| FC1(F)N=C(c2cnccn2)SC1(F)c1ccc(Cl)cc1 (stereo not drawn) | Active |
| FC1(F)SC(c2ccc(Cl)cc2)=NC1(F)c1ccc(Cl)cc1 (stereo not drawn) | Active |
